In patent publication US10948498B2, “Methods and kits for predicting the risk of having a cardiovascular disease or event” (INOTREM, priority 2013, dated 2021):

Assays:
[1] = tested on: Atherosclerotic mice (24 weeks old ApoE−/− mice under fat diet); assay: Atherosclerosis in mouse: plasma sTREM-1 after peptide treatment; assay type: in vivo
Protocol: (B) Atherosclerotic mice were randomized to receive LR12 (100 μg in 0.2 mL NaCl 0.9% once a day for 4 weeks) or scrambled-LR12 (100 μg in 0.2 mL NaCl 0.9% once a day for 4 weeks), i.p. injections. Blood samples were obtained at the end of the treatment (4 weeks) to assess sTREM-1 plasma concentrations. Physiologic baseline is calculated from dosage in healthy animals. N=10 per group.
(§1) Mice serum levels of sTREM-1 were determined by ELISA (Mouse TREM-1 Quantikine ELISA Kit, RnDsystems) using a detection limit at 31.3 pg/mL.
12 and 24-weeks old male ApoE−/− mice were put on a fat (lipids 15%, cholesterol 1.25%, no cholate) or chow diet and were treated by daily intraperitoneal injection of peptides (100 μg/day). After 4 weeks of treatment, mice were sacrificed for blood sampling.
Our second objective was to assess whether a treatment could impact plasma levels of sTREM-1. Atherosclerotic mice (24 weeks old ApoE−/− mice under fat diet) were treated by LR12 peptide, which targets TREM-1 ligand, or a control peptide LR12-scrambled.

infarcted mice = assay: Mouse model of myocardial infarction: plasma sTREM-1 after peptide treatment; assay type: in vivo; conditions: for sTREM-1 levels: daily i.p. injection for 5 days, vs LR12-scrambled (FIG. 4A)
Protocol: (A) Adult male Balb/c mice (20-23 g) were subjected to myocardial ischemia and were randomly grouped (n=10 per group) to receive repeated LR12 (100 μg in 0.2 mL NaCl 0.9% once a day for 5 days) or scrambled-LR12 (100 μg in 0.2 mL NaCl 0.9% once a day for 5 days), i.p. injections. Blood samples was obtained at 24, 72 and 168 hours after cardiac ischemic event to measure plasma sTREM-1 levels. Physiologic baseline is calculated from dosage in healthy animals. N=10 per group and per timepoint.
as §1
All procedures were performed on mice male C57BL/C ranging in age from 6-8 weeks. Mice were anesthetized by an intraperitoneal injection of xylazine (60 mg/kg) and fixed in supine position. The trachea was intubated and ventilated (the tidal volume was 200 μl/25 g and the respiratory rate was 120 breaths/min). After a left thoracotomy, the left coronary artery was identified and ligated with an 8-0 prolene surgical suture at 1.0 mm distal from tip of the left auricle. LAD occlusion was confirmed by a change in myocardial color from red to white in the ischemia area (Left ventricle). The chest was closed and the skin was sutured with 6-0 silk. The animals returned to their cage where they are supervised until their complete recovery.
Mice were randomized to receive or not peptides (daily ip injection for 5 days, 5 mg/kg) and were sacrificed after 24 h, 72 h, 168 h (n=6 per group) by anesthesia followed with pentobarbital sodium overdose for blood sampling.
We also show in infarcted mice that sTREM-1 levels were decreased by LR12 treatment 24 and 72 hours after an ischemic event (FIG. 4A).

LR12: 12 amino-acids peptide (LQEEDTGEYGCV, SEQ ID NO: 4) known to specifically target TREM-1 ligand (LR12)
sTREM-1 plasma concentration ([1]; 24 weeks old ApoE−/− mice under fat diet, 100 μg/day i.p., after 4 weeks of treatment, ELISA): 189.8 pg/mL | outcome during atherosclerosis ([1]; data not shown): better outcome | sTREM-1 levels (infarcted mice; 24 hours after ischemic event): decreased | sTREM-1 levels (infarcted mice; 72 hours after ischemic event): decreased | outcome after a cardiac ischemic event (infarcted mice; data not shown): better outcome
